Measurements reported in BindingDB's records for patent US11149040 (Amgen, 2021).

Target: T1, Apelin receptor (Homo sapiens, UniProt P35414)
T1 sequence (P35414 whole entry): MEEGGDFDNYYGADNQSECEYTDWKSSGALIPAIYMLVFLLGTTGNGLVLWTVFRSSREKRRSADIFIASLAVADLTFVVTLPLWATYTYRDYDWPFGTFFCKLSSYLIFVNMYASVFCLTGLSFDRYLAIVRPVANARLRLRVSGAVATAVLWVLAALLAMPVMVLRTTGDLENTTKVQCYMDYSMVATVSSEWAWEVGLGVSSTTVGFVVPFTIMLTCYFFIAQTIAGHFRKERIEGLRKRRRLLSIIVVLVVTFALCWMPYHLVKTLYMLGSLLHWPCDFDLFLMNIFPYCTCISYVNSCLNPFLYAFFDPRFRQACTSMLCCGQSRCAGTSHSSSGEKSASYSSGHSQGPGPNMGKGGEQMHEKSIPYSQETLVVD
Assay: [35S]GTPgammaS Binding
Description: The human APJ receptor was cloned by polymerase chain reaction and the gene encoding the receptor was subcloned in pFLAG-CMV -3 expression vector (Sigma, Saint Louis, Mo. USA) in-house at Amgen. A GTPγS binding assay was performed on membranes prepared from CHO cells stably expressing human APJ receptor. The optimum experimental conditions for the concentrations of GDP, MgCl2, and NaCl in the assay buffer were initially determined. The assay was performed in 9 μL assay buffer [20 mM HEPES, pH 7.5, 5 mM MgCl2, 100 mM NaCl and 0.1% (w/v) BSA], 1 μL of diluted test compound (starting with 0.75 mM, 2-fold serial dilution with DMSO, total 22 points), 10 μL of 18 μM GDP (final concentration of 3 μM GDP), 20 μL of […] membrane protein expressing human APJ receptor captured with WGA PS beads (final concentration of 5 μg per well), and 20 μL of 0.3 nM [35S]GTPγS (final concentration is 0.1 nM [35S]GTPγS)(Perkin Elmer Life and Analytical Sciences, Waltham USA). […] Incubation was at RT for 90 min and the microplate was read using a ViewLux ultra HTS Microplate Imager (PerkinElmer, Inc.). All the results presented are means of several independent experiments and analyzed by non-linear regression methods using the commercially available program Prism (GraphPad, San Diego, Calif.) providing the EC50 values detailed in Table 13.

`Cc1cnc([C@H](OC(C)C)[C@H](C)S(=O)(=O)Nc2nnc3n2-c2c(F)cccc2/C=C\CC3)nc1` (single isomer, unassigned) [US11149040, Example 49.0] gave an EC50 of 98 nM.
